Data as given in the CheMixHub viscosity set.

Test: xn = mol fraction of the nth substance listed

CCC(C)N (stereo not given) + Cc1ccccc1
303.15 K, 101 kPa
Details | viscosity [mPa·s]
x2 = 0.1499 | 0.4062
x2 = 0.216 | 0.4085
x2 = 0.2959 | 0.4124
x2 = 0.3889 | 0.419
x2 = 0.5124 | 0.4325
x2 = 0.613 | 0.4492
x2 = 0.7105 | 0.4679
x2 = 0.8708 | 0.4998

CCCCCC(=O)O + ClC(Cl)(Cl)Cl
298.15 K, 101 kPa
Details | viscosity [mPa·s]
x1 = 0.07 | 0.966
x1 = 0.13 | 1.033
x1 = 0.19 | 1.108
x1 = 0.25 | 1.188
x1 = 0.47 | 1.548
x1 = 0.57 | 1.743
x1 = 0.67 | 1.927
x1 = 0.84 | 2.343

CC(=O)CC(C)C + ClC(Cl)Cl
298.15 K, 101 kPa
Details | viscosity [mPa·s]
x2 = 0.0813 | 0.5611
x2 = 0.1599 | 0.5799
x2 = 0.2352 | 0.5986
x2 = 0.3916 | 0.6341
x2 = 0.497 | 0.6494
x2 = 0.6114 | 0.6521
x2 = 0.7252 | 0.6349
x2 = 0.864 | 0.5903
x2 = 0.9291 | 0.5613

CCOCC + ClC(Cl)Cl
101.33 kPa
Details | viscosity [mPa·s]
293.15 K, x2 = 0.1704 | 0.295
293.15 K, x2 = 0.2909 | 0.354
293.15 K, x2 = 0.4425 | 0.416
293.15 K, x2 = 0.562 | 0.466
293.15 K, x2 = 0.6848 | 0.507
293.15 K, x2 = 0.8038 | 0.536
293.15 K, x2 = 0.8989 | 0.555
298.15 K, x1 = 0.274 | 0.472
298.15 K, x1 = 0.528 | 0.397
298.15 K, x1 = 0.672 | 0.34
298.15 K, x1 = 0.863 | 0.268
298.15 K, x2 = 0.1567 | 0.282
298.15 K, x2 = 0.3094 | 0.343
298.15 K, x2 = 0.4329 | 0.395
298.15 K, x2 = 0.5582 | 0.445
298.15 K, x2 = 0.6897 | 0.489
298.15 K, x2 = 0.8073 | 0.519
298.15 K, x2 = 0.8947 | 0.536

CCOCC + ClCCl
298.15 K, 101 kPa
Details | viscosity [mPa·s]
x1 = 0.113 | 0.4351
x1 = 0.2227 | 0.4106
x1 = 0.3294 | 0.3839
x1 = 0.4331 | 0.3585
x1 = 0.5341 | 0.3342
x1 = 0.6322 | 0.3106
x1 = 0.7278 | 0.289
x1 = 0.8209 | 0.2687
x1 = 0.9116 | 0.2496

CCOCC + Nc1ccccc1
298.15 K, 101 kPa
Details | viscosity [mPa·s]
x1 = 0.3027 | 1.359
x1 = 0.5488 | 0.669
x1 = 0.7838 | 0.38

CCC(C)N (stereo not given) + O
viscosity [mPa·s], 101.33 kPa
Details | x1 = 0.1 | x1 = 0.1999 | x1 = 0.3 | x1 = 0.3998 | x1 = 0.4994 | x1 = 0.5999 | x1 = 0.6998 | x1 = 0.7997 | x1 = 0.8999
298.15 K | 2.276 | 2.556 | 2.232 | 1.774 | 1.322 | 0.9973 | 0.7605 | 0.5992 | 0.4885
303.15 K | 1.937 | 2.173 | 1.917 | 1.538 | 1.165 | 0.8899 | 0.6906 | 0.552 | 0.4543
308.15 K | 1.669 | 1.865 | 1.659 | 1.341 | 1.033 | 0.8024 | 0.6317 | 0.5102 | 0.4248
313.15 K | 1.453 | 1.616 | 1.443 | 1.18 | 0.921 | 0.7245 | 0.5794 | 0.4736 | 0.3983
318.15 K | 1.275 | 1.417 | 1.269 | 1.047 | 0.8266 | 0.6602 | 0.534 | 0.4409 | 0.3744
323.15 K | 1.138 | 1.25 | 1.123 | 0.9361 | 0.7467 | 0.61 | 0.4935 | 0.4113 | 0.3528

CCCCCCCCCCCCCC[P+](CCCCCC)(CCCCCC)CCCCCC.c1nnc[n-]1 + O
Details | viscosity [mPa·s]
298.15 K, 100 kPa, x2 = 0.7956 | 114

CCCCCCO + O
viscosity [mPa·s], 101 kPa
Details | 298.15 K | 308.15 K | 318.15 K
x2 = 0.0013 | – | – | 2.573
x2 = 0.0042 | 4.567 | 3.388 | –
x2 = 0.0554 | – | – | 2.513
x2 = 0.0593 | 4.427 | 3.295 | –
x2 = 0.1019 | – | – | 2.475
x2 = 0.1079 | 4.355 | 3.237 | –
x2 = 0.1483 | 4.324 | 3.209 | 2.447
x2 = 0.1875 | – | – | 2.432
x2 = 0.1933 | 4.314 | 3.193 | –
x2 = 0.2248 | – | – | 2.425
x2 = 0.2367 | 4.322 | 3.192 | –
x2 = 0.2673 | 4.341 | 3.198 | 2.427
x2 = 0.2981 | 4.369 | 3.213 | –
x2 = 0.3116 | – | – | 2.439

CCOCC + O
298.15 K, 101 kPa
Details | viscosity [mPa·s]
x1 = 0.00334 | 0.9366
x1 = 0.00369 | 1.053
x1 = 0.00509 | 0.9597
x1 = 0.00551 | 1.073
x1 = 0.00769 | 0.9959
x1 = 0.00866 | 1.107
x1 = 0.00871 | 1.01
x1 = 0.0107 | 1.132
x1 = 0.0113 | 1.138
x1 = 0.0149 | 1.088
x1 = 0.973 | 0.27
x2 = 0.0179 | 0.269

CN(C)C(=N)NC(=N)N.Cl + O
viscosity [mPa·s]
Details | 298.15 K | 303.15 K | 308.15 K | 313.15 K | 318.15 K
100 kPa, x1 = 0.00018 | 0.894 | – | – | – | –
100 kPa, x1 = 0.0003598 | 0.896 | 0.803 | – | – | –
100 kPa, x1 = 0.0005412 | 0.898 | 0.805 | 0.726 | – | –
100 kPa, x1 = 0.0007212 | 0.9 | – | – | 0.663 | –
100 kPa, x1 = 0.0009 | – | – | – | – | 0.607
100 kPa, x1 = 0.0009014 | 0.902 | 0.809 | 0.73 | 0.665 | –
100 kPa, x1 = 0.001079 | 0.904 | 0.811 | 0.732 | 0.667 | –
100 kPa, x1 = 0.001259 | 0.906 | – | 0.734 | 0.669 | –
100 kPa, x1 = 0.001439 | 0.908 | 0.815 | 0.736 | 0.671 | –
100 kPa, x1 = 0.001619 | 0.91 | 0.817 | 0.738 | 0.673 | –
100 kPa, x1 = 0.001798 | 0.912 | 0.819 | 0.74 | 0.675 | –
100 kPa, x1 = 0.0018 | – | – | 0.739 | 0.675 | 0.613
100 kPa, x1 = 0.0027 | – | – | 0.75 | 0.68 | 0.622
101 kPa, x1 = 0.00011 | – | – | 0.721 | – | 0.597
101 kPa, x1 = 0.000241 | – | – | 0.723 | – | 0.598
101 kPa, x1 = 0.000481 | – | – | 0.726 | – | 0.6
101 kPa, x1 = 0.000722 | 0.903 | – | 0.729 | – | 0.601
101 kPa, x1 = 0.000965 | 0.907 | – | 0.732 | – | 0.604
101 kPa, x1 = 0.00121 | 0.91 | – | 0.735 | – | 0.606

C[NH+]1CCCC1=O.Cc1ccc(S(=O)(=O)[O-])cc1 + O
viscosity [mPa·s], 100 kPa
Details | x1 = 0.00179 | x1 = 0.003588 | x1 = 0.005313 | x1 = 0.008042 | x1 = 0.01069 | x1 = 0.01417 | x1 = 0.02116 | x1 = 0.02631 | x1 = 0.03141
293.15 K | 1.079 | 1.149 | 1.212 | 1.311 | 1.404 | 1.533 | 1.806 | 2.029 | 2.274
298.15 K | 0.9575 | – | 1.073 | 1.157 | – | 1.358 | – | 1.819 | 2.048
303.15 K | 0.8523 | 0.9062 | 0.9554 | – | – | 1.201 | 1.42 | 1.611 | 1.827
308.15 K | 0.7695 | 0.8124 | 0.8523 | 0.9156 | 0.9784 | – | – | 1.444 | 1.64

Cc1cccc[n+]1CCCO.[Cl-] + O
viscosity [mPa·s], 100 kPa
Details | x1 = 0.0008999 | x1 = 0.001798 | x1 = 0.003589 | x1 = 0.005379 | x1 = 0.007153 | x1 = 0.00892
293.15 K | 1.041 | 1.068 | 1.116 | 1.161 | 1.203 | 1.243
298.15 K | 0.922 | 0.945 | 0.987 | 1.026 | 1.063 | 1.098
303.15 K | 0.822 | 0.841 | 0.877 | 0.911 | 0.943 | 0.974
308.15 K | 0.739 | 0.756 | 0.788 | 0.818 | 0.846 | 0.874
313.15 K | 0.668 | 0.682 | 0.709 | 0.736 | 0.761 | 0.786

Cc1cn([C@H]2CC(O)[C@@H](CO)O2)c(=O)[nH]c1=O (stereo not given in full) + O
viscosity [mPa·s], 101.3 kPa
Details | x1 = 9.02e-05 | x1 = 0.000159 | x1 = 0.0002266 | x1 = 0.0003081 | x1 = 0.0004541 | x1 = 0.0004775
298.15 K | 0.893 | 0.894 | 0.895 | 0.897 | 0.899 | 0.9
308.15 K | 0.721 | 0.722 | 0.723 | 0.724 | 0.726 | 0.727
318.15 K | 0.598 | 0.598 | 0.599 | 0.6 | 0.602 | 0.602

O=P([O-])(O)O.[NH4+] + O
viscosity [mPa·s], 101 kPa
Details | 293.15 K | 303.15 K | 313.15 K | 323.15 K
x1 = 0.017 | 1.312 | 1.049 | 0.855 | 0.71
x1 = 0.038 | 1.826 | 1.442 | 1.17 | 0.972
x1 = 0.063 | – | 2.196 | 1.749 | 1.438
x1 = 0.095 | – | – | – | 2.325

O=[PH2][O-].O=[PH2][O-].[Mn+2] + O
Details | viscosity [mPa·s]
298.15 K, 101.33 kPa, x1 = 0.0137 | 1.68

OCCOCCOCCOCCOCCOCCOCCO + O
viscosity [mPa·s], 100 kPa
Details | 293.15 K | 298.15 K | 303.15 K | 308.15 K | 313.15 K | 318.15 K | 323.15 K
x2 = 0.059 | 97.27 | 73.66 | 57.03 | 45.14 | 36.26 | 29.64 | 24.53
x2 = 0.088 | 93.78 | 71.34 | 53.69 | 42.57 | 34.29 | 28 | 23.21
x2 = 0.188 | 92.26 | 69.66 | 53.76 | 42.35 | 33.98 | 27.72 | 22.88
x2 = 0.221 | 92.02 | 69.89 | 53.68 | 42.29 | 33.97 | 27.67 | 22.86

OCCOCCOCCOCCOCCOCCOCCOCCO + O
viscosity [mPa·s], 100 kPa
Details | 293.15 K | 298.15 K | 303.15 K | 308.15 K | 313.15 K | 318.15 K | 323.15 K
x2 = 0.042 | 108.4 | 81.84 | 63.33 | 50.05 | 40.2 | 32.83 | 27.17
x2 = 0.111 | 107.4 | 81.02 | 62.63 | 49.38 | 39.67 | 32.32 | 26.74
x2 = 0.267 | 103 | 77.64 | 60.34 | 47.5 | 38.03 | 30.97 | 25.55
x2 = 0.294 | 98.4 | 74.46 | 57.33 | 45.14 | 36.19 | 29.5 | 24.36
